Measured values as given in patent publication US7674451B2, “Cosmetic or pharmaceutical composition comprising peptides, uses and treatment processes” (ISP Investments Inc., priority 2002, dated 2010).
Where a SMILES comes first, the peptide text is derived from it.

Test system: ERG 1-2 molecule
Test: Cell differentiation marker ERG 1-2 in HaCat keratinocytes, immunofluorescence
Type: cell-based
Details: HaCat human keratinocytes, 24 hours

SMILES: N=C(N)NCCC[C@H](N)C(=O)NCC(=O)N[C@@H](CO)C(=O)O [Arg-Gly-Ser] (H-Arg-Gly-Ser-OH)
- quantity of ERG molecules present in the cells (intensity of fluorescence): increases
